Assays:
[1] = log P=[solute]octanol/[solute]water; cited from earlier work
[2] = solvent screen: PDO mixture with single solvents, distribution between solvent and aqueous phase; format: physicochemical; conditions: 30° C.; for Distribution Coefficient Glucose / Distribution Coefficient Glycerol / Distribution Coefficient PDO: conc. in solvent phase / conc. in aqueous phase, aqueous solution 46% w/v PDO, 3.5% glycerol, […] glucose; for Selectivity PDO/Glycerol: distribution coefficient of PDO divided by that of glycerol
Description: 10 g of an aqueous solution containing 46% w/v PDO, 3.5% glycerol and 2.9% glucose was heated to 30° C. and the required solvent added in very small quantities until a cloudiness just began to develop. Additional solvent (about 1 g) was added and thoroughly mixed. The mixture was allowed to settle for 10 minutes and then centrifuged to achieve complete phase separation. The two phases (solvent and aqueous) were analyzed.

## CC(O)CO (stereo not shown) [1,2 PDO]
[1]
  hydrophobic parameter log P: −1.003

## OCCCCO [1,4 butanediol]
[1]
  hydrophobic parameter log P: −1.384

## CC(=O)CC(C)C [4-Methyl Pentan-2-one]
[2]
  Distribution Coefficient Glucose: 0.001
  Distribution Coefficient Glycerol: 0.008
  Distribution Coefficient PDO: 0.033
  Selectivity PDO/Glycerol: 4.03

## CCCCO [Butan-1-ol]
[2]
  phase formation on adding solvent to the aqueous PDO solution: Only one liquid phase formed

## CCCCCCCC/C=C\CCCCCCCC(=O)O [Oleic acid]
[2]
  Distribution Coefficient Glucose: 0.241
  Distribution Coefficient Glycerol: 0.002
  Distribution Coefficient PDO: 0.009
  Selectivity PDO/Glycerol: 5.23

## CCCCCCCC/C=C\CCCCCCCCO [Oleyl Alcohol]
[2]
  Distribution Coefficient Glucose: 0.001
  Distribution Coefficient Glycerol: 0.024
  Distribution Coefficient PDO: 0.038
  Selectivity PDO/Glycerol: 1.60

## CCCCCO [Pentan-1-ol]
[2]
  Distribution Coefficient Glucose: 0.256
  Distribution Coefficient Glycerol: 0.417
  Distribution Coefficient PDO: 0.609
  Selectivity PDO/Glycerol: 1.46

## CCCCCCCCCC [decane]
[1]
  hydrophobic parameter log P: 5.98

## CCCCCCCCCCCCO [dodecanol]
[1]
  hydrophobic parameter log P: 5.0

## CCOC(C)=O [ethyl acetate]
[1]
  hydrophobic parameter log P: 0.68

## OCC(O)CO [glycerol]
[1]
  hydrophobic parameter log P: −2.08

## CCCCCCC [heptane]
[1]
  hydrophobic parameter log P: 4.0

## CCCCCCCO [heptanol]
[1]
  hydrophobic parameter log P: 2.4

## CC(=O)OC(C)C [isopropyl acetate]
[2]
  Distribution Coefficient Glucose: 0.001
  Distribution Coefficient Glycerol: 0.005
  Distribution Coefficient PDO: 0.024
  Selectivity PDO/Glycerol: 5.17

## CCCCCCCC [octane]
[1]
  hydrophobic parameter log P: 4.5

## CCCOC(C)=O [propyl acetate]
[1]
  hydrophobic parameter log P: 1.2
